Earlier results in article PMC8198792, “Prediction of Anticancer Peptides with High Efficacy and Low Toxicity by Hybrid Model Based on 3D Structure of Peptides” (International Journal of Molecular Sciences, 2021).
Read-outs that look alike come from different tables or passages of the source.

What was measured:
cancer cell lines = system: cancer cell lines; parameters: method as in 6 sources, ref CancerPPD [45] and SATPdb ||| ref CancerPPD/SATPdb ||| ref CancerPPD, SATPdb, Swissprot (PDB) ||| ref CancerPPD/SATPdb/Swissprot(PDB) ||| ref CancerPPD / SATPdb ||| ...; conditions: cited from earlier work
Text: Supplement ijms-22-05630-s001.zip/ACPs(seguence).xlsx, sheet "D1" | column: Activity || Supplement ijms-22-05630-s001.zip/ACPs(seguence).xlsx, sheet "D2" | column: Activity || Supplement ijms-22-05630-s001.zip/ACPs(seguence).xlsx, sheet "D3" | column: Activity || (+ 2 further places)

erythrocytes = conditions: cited from earlier work
Text: Supplement ijms-22-05630-s001.zip/Hemloytic Peptides(seguence).xlsx, sheet "HD1" | column: Activity || Supplement ijms-22-05630-s001.zip/Hemloytic Peptides(seguence).xlsx, sheet "HD2" | column: Activity || Supplement ijms-22-05630-s001.zip/Hemloytic Peptides(seguence).xlsx, sheet "HD3" | column: Activity

[1] = ACPs dataset D1, label 1 = ACP, 0 = non-ACP (non-anticancer AMPs from SATPdb), ref CancerPPD/SATPdb
[2] = ACPs dataset D4 (sheet "D4"), label 1 = ACP, 0 = non-ACP, ref CancerPPD / SATPdb
[3] = hemolytic peptides dataset HD3, 1 = hemolytic (positive set), 0 = non-hemolytic (negative set), labels taken from databases, ref Hemolytik/SATPdb
[4] = natural hemolytic peptide dataset HD1, label collected from databases, ref Hemolytik [49], SATPdb [34]
[5] = ACPs dataset D4 (sheet "D4"), label 1 = ACP (CancerPPD ID), 0 = non-ACP (non-anticancer AMP, SATPdb ID), ref CancerPPD [45] and SATPdb
[6] = ACPs dataset D1, 1 = ACP (positive), 0 = non-ACP (negative), label taken from databases, ref CancerPPD [45] and SATPdb
[7] = ACPs dataset D3 (supplement sheet "D3"), 1 = ACP, 0 = non-ACP, ref CancerPPD [45] and SATPdb
[8] = ACPs dataset D5, sheet "D5", label 1 = ACP, 0 = non-ACP, ref CancerPPD [45] and SATPdb
[9] = Hemolytic peptides dataset HD2, label 1 = hemolytic, 0 = non-hemolytic, ref Hemolytik/SATPdb
[10] = ACPs dataset D3 (sheet "D3"), label 1 = ACP, 0 = non-ACP, ref CancerPPD/SATPdb

| Substance | Activity (cancer cell lines; [1]) | Activity (cancer cell lines; [2]) | Activity (erythrocytes; [3]) | Activity (dataset HD1, hemolytic 1 / non-hemolytic 0) (erythrocytes; [4]) | Activity (cancer cell lines; [5]) | Activity (cancer cell lines; [6]) | Activity (erythrocytes) | Activity (dataset HD1, hemolytic 1 / non-hemolytic 0) (erythrocytes) | Activity (cancer cell lines; [7]) | Activity (cancer cell lines; [8]) | Activity (erythrocytes; [9]) | Activity (cancer cell lines; [10]) |
| --- | --- | --- | --- | --- | --- | --- | --- | --- | --- | --- | --- | --- |
| FIGAIARLLSKIF [satpdb13222] | 0 | 0 | 1 | 1 |  |  |  |  |  |  |  |  |
| FKCKKVVISLRRY [satpdb11913] | 0 |  | 0 | 0 | 0 |  |  |  |  |  |  |  |
| FLAGLIGGLAKMLGK [satpdb10461] |  |  |  |  | 0 | 0 | 1 | 1 |  |  |  |  |
| FLPAIAGILSQLF [satpdb10431] |  | 0 |  |  |  |  | 1 |  | 0 | 0 |  |  |
| FLPILAGLAAKIVPKLFCLATKKC [satpdb11778] | 0 |  |  |  | 0 |  | 1 | 1 |  |  |  |  |
| FLPILGKLLSGIL [satpdb10106] |  | 0 | 1 |  |  |  |  |  | 0 | 0 | 1 |  |
| FLPLIGAVLSGIL [satpdb13723] |  | 0 |  |  |  |  | 1 |  |  | 0 |  | 0 |
| FLPLIGRVLSGAL [satpdb13300] |  | 0 |  |  |  |  | 1 |  |  | 0 |  | 0 |
| FLPLIGRVLSGIA [satpdb10103] |  | 0 |  |  |  |  | 1 |  | 0 | 0 |  |  |
| FLSLALAALPKLFCLIFKKC [satpdb10291] |  |  | 1 | 1 | 0 | 0 |  |  |  |  |  |  |
| FLSTIWNGIKSLL [satpdb12436] |  | 0 | 1 |  |  |  |  |  |  | 0 | 1 | 0 |
| FPFSLIPHAIGGLISAIK [satpdb11349] |  |  | 1 | 1 | 0 | 0 |  |  |  |  |  |  |
| FQWQRNIRKVR [satpdb14534] |  | 0 |  |  |  |  | 0 |  |  | 0 |  | 0 |
| FRPKVTITIQGSARF [satpdb11995] |  | 0 |  |  |  |  | 0 |  |  | 0 |  | 0 |
| FSPQMLQDIIEKKTKIL [satpdb13152] | 0 | 0 |  |  |  |  | 0 | 0 |  |  |  |  |
| FVPWFSKFLGRIL [satpdb13384] |  | 0 | 1 |  |  |  |  |  |  | 0 | 1 | 0 |
| GFLSILKKVLAKVMAHMK [satpdb13478] |  | 0 | 1 |  |  |  |  |  |  | 0 | 1 | 0 |
| GFLSILKKVLGKVMAHMK [satpdb11125] |  | 0 | 1 |  |  |  |  |  | 0 | 0 | 1 |  |
| GFLSSLKKSLPKSXAHSK [satpdb13158] |  | 0 | 1 |  |  |  |  |  |  | 0 | 1 | 0 |
| GFMKYIKPLIPHAVKAIKKLI [satpdb12244] |  | 0 |  |  |  |  | 1 |  |  | 0 |  | 0 |

| Substance | Activity (cancer cell lines; [1]) | Activity (cancer cell lines; [2]) | Activity (erythrocytes; [3]) | Activity (dataset HD1, hemolytic 1 / non-hemolytic 0) (erythrocytes; [4]) | Activity (cancer cell lines; [5]) | Activity (cancer cell lines; [6]) | Activity (erythrocytes) | Activity (dataset HD1, hemolytic 1 / non-hemolytic 0) (erythrocytes) | Activity (cancer cell lines; [7]) | Activity (cancer cell lines; [8]) | Activity (erythrocytes; [9]) | Activity (cancer cell lines; [10]) |
| --- | --- | --- | --- | --- | --- | --- | --- | --- | --- | --- | --- | --- |
| GIGAVLK*VLTTGLpALISWIK*RK*RQQ [satpdb13686] |  | 0 | 1 |  |  |  |  |  |  | 0 | 1 | 0 |
| GIGAvLKvLTTGLPALiSWIkRKRQQ [satpdb13084] |  | 0 | 0 |  |  |  |  |  |  | 0 | 0 | 0 |
| GIGKFLHTLKTFGKKWVGEIMNS [satpdb13533] |  | 0 |  |  |  |  | 1 |  |  | 0 |  | 0 |
| GKKLLKKLKKLLKKW [satpdb10586] |  | 0 |  |  |  |  | 1 |  | 0 | 0 |  |  |
| GLGKFLHSAKRFGKAFVGEAMNS [satpdb13009] |  | 0 |  |  |  |  | 1 |  |  | 0 |  | 0 |
| GLGSLLGKAFKIGLKTVGKMMGGAPREQ [satpdb12448] | 0 |  |  |  | 0 |  | 1 | 1 |  |  |  |  |
| GLKEIFKAGLGSLVKGIAAHVAS [satpdb12238] |  |  |  |  |  |  | 1 |  |  |  |  | 0 |
| GLLGPLLKIAAKVGKKLL [satpdb11754] |  | 0 |  |  |  |  | 1 |  | 0 | 0 |  |  |
| GLLSGILGAGKQKVCGLSGLC [satpdb12339] | 0 |  |  |  | 0 |  | 1 | 1 |  |  |  |  |
| GLVTSLIKGAGKLLGGLFGSVTGGQS [satpdb13110] | 0 | 0 |  |  |  |  | 1 | 1 |  |  |  |  |
| GLWDTIKQAGKKFFLNVLDKIRCKVAGGCRT [satpdb11099] |  |  | 1 | 1 | 0 | 0 |  |  |  |  |  |  |
| GRFKRFRKKFKKLFKKLSPVIPLLHL [satpdb13682] |  | 0 |  |  |  |  | 1 |  |  | 0 |  | 0 |
| GWLDVAKKIGKAAFNVAKNFLFNKAVNFAAKGIKKAVDLWG [satpdb12864] | 0 | 0 | 1 | 1 |  |  |  |  |  |  |  |  |
| ILAWKWAWWAWRR [satpdb11388] |  | 0 |  |  |  |  | 1 |  | 0 | 0 |  |  |
| ILPFKFPFFPFRR [satpdb11100] |  | 0 | 1 |  |  |  |  |  | 0 | 0 | 1 |  |
| ILPFKFPFPFRR [satpdb12286] |  | 0 |  |  |  |  | 1 |  |  | 0 |  | 0 |
| ILPKKKPWWPWRR [satpdb13640] |  | 0 |  |  |  |  | 1 |  |  | 0 |  | 0 |
| ILPLKLPLLPWRR [satpdb11013] |  | 0 | 0 |  |  |  |  |  | 0 | 0 | 0 |  |
| ILPWKWPKLPWRR [satpdb13392] |  | 0 |  |  |  |  | 0 |  |  | 0 |  | 0 |
| ILPWKWPWWPWRR [satpdb10356] |  | 0 | 1 |  |  |  |  |  | 0 | 0 | 1 |  |
